Active and inactive are the calls of the source. The calls are words filed in the database; no cut-off is given here.
Tests used:
Assay type in all cases: cell-based
[1] = target: T1, Protein cereblon/Histone-lysine N-methyltransferase EZH2 (Homo sapiens) (UniProt Q15910+Q96SW2); assay: Protac activity at CRBN E3 ligase/EZH2 in human 22Rv1 cells assessed as degradation of EZH2 at 0.3 uM incubated for 48 hrs by Western blot analysis
[2] = target: T1, Protein cereblon/Histone-lysine N-methyltransferase EZH2 (Homo sapiens); assay: Protac activity at CRBN E3 ligase/EZH2 in human 22Rv1 cells assessed as degradation of EZH2 at 1 uM incubated for 48 hrs by Western blot analysis
[3] = target: T1, Protein cereblon/Histone-lysine N-methyltransferase EZH2 (Homo sapiens); assay: Protac activity at CRBN E3 ligase/EZH2 in human 22Rv1 cells assessed as degradation of EZH2 at 3 uM incubated for 48 hrs by Western blot analysis
[4] = target: T1, Protein cereblon/Histone-lysine N-methyltransferase EZH2 (Homo sapiens); assay: Protac activity at CRBN E3 ligase/EZH2 in human 22Rv1 cells assessed as inhibition of H3K27me3 at 0.3 uM incubated for 48 hrs by Western blot analysis
[5] = target: T1, Protein cereblon/Histone-lysine N-methyltransferase EZH2 (Homo sapiens); assay: Protac activity at CRBN E3 ligase/EZH2 in human 22Rv1 cells assessed as inhibition of H3K27me3 at 1 uM incubated for 48 hrs by Western blot analysis
[6] = target: T1, Protein cereblon/Histone-lysine N-methyltransferase EZH2 (Homo sapiens); assay: Protac activity at CRBN E3 ligase/EZH2 in human 22Rv1 cells assessed as inhibition of H3K27me3 at 3 uM incubated for 48 hrs by Western blot analysis
[7] = target: von Hippel-Lindau disease tumor suppressor/Histone-lysine N-methyltransferase EZH2 (Homo sapiens) (UniProt Q15910+P40337); assay: Protac activity at VHL/EZH2 in human 22Rv1 cells assessed as reduction in H3K27me3 level at 1 uM incubated for 48 hrs by Western blot analysis
von Hippel-Lindau disease tumor suppressor/Histone-lysine N-methyltransferase EZH2 (Homo sapiens), sequence (P40337 whole entry, looked up): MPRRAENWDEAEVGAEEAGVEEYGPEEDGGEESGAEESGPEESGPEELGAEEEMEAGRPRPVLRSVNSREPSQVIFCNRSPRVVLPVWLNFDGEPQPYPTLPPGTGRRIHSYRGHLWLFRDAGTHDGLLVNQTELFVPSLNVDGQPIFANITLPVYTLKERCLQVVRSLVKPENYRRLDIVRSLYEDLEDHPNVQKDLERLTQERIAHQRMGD
von Hippel-Lindau disease tumor suppressor/Histone-lysine N-methyltransferase EZH2 (Homo sapiens), sequence (Q15910 whole entry, looked up): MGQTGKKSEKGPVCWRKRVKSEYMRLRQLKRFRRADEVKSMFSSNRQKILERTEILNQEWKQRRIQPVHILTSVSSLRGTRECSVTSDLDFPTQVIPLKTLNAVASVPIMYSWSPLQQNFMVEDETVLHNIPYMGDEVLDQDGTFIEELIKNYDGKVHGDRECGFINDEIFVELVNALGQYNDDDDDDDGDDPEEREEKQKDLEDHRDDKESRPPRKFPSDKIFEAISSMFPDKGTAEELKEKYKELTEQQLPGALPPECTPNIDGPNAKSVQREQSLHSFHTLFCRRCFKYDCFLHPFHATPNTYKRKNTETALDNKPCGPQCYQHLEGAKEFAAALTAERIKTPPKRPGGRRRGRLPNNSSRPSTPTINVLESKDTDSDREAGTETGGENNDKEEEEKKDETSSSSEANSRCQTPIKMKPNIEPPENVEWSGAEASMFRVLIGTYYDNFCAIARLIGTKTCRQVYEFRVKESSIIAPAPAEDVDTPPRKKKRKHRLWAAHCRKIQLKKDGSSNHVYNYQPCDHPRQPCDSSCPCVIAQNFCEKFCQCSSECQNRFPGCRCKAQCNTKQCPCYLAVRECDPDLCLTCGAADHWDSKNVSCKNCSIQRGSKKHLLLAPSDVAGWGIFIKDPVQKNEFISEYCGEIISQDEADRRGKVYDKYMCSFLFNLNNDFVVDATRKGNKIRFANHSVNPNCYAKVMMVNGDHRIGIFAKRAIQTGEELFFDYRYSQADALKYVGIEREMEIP

T1 sequence (Q15910 whole entry, looked up): as above
T1 sequence (Q96SW2 whole entry, looked up): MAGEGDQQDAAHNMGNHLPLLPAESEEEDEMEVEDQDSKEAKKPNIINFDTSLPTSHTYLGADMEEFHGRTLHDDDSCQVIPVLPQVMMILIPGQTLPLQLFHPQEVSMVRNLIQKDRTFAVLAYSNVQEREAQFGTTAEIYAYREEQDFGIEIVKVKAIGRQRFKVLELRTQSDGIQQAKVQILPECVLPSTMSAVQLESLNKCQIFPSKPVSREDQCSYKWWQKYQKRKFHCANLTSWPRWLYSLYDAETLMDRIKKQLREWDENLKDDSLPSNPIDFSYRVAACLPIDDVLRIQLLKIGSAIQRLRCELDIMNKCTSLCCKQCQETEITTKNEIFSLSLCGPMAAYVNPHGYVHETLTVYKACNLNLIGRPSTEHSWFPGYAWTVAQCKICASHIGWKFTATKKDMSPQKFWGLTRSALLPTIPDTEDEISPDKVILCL

Row | SMILES | Activity [1] | Activity [2] | Activity [3] | Activity [4] | Activity [5] | Activity [6] | Activity [7]
1 | CCN(c1cc(-c2ccc(C(=O)NCCCCCCNC(=O)COc3cccc4c3C(=O)N(C3CCC(=O)NC3=O)C4=O)cc2)cc(C(=O)NCc2c(C)cc(C)[nH]c2=O)c1C)C1CCOCC1 (stereo not given) | inactive | inactive | inactive | Active | Active | Active | –
2 | CCN(c1cc(-c2ccc(C(=O)NCCOCCOCC(=O)N[C@H](C(=O)N3C[C@H](O)C[C@H]3C(=O)NCc3ccc(-c4scnc4C)cc3)C(C)(C)C)cc2)cc(C(=O)NCc2c(C)cc(C)[nH]c2=O)c1C)C1CCOCC1 | – | – | – | – | – | – | Active
3 | CCN(c1cc(-c2ccc(C(=O)NCCOCCOCCOCCOc3cccc4c3C(=O)N(C3CCC(=O)NC3=O)C4=O)cc2)cc(C(=O)NCc2c(C)cc(C)[nH]c2=O)c1C)C1CCOCC1 (stereo not given) | inactive | inactive | inactive | inactive | Active | Active | –

Further lines, results first:

Row | Activity [1] | Activity [2] | Activity [3] | Activity [4] | Activity [5] | Activity [6] | Activity [7] | SMILES
4 | inactive | inactive | inactive | Active | Active | Active | – | CCN(c1cc(-c2ccc(C(=O)NCCOCCNc3cccc4c3C(=O)N(C3CCC(=O)NC3=O)C4=O)cc2)cc(C(=O)NCc2c(C)cc(C)[nH]c2=O)c1C)C1CCOCC1 (stereo not given)
5 | inactive | inactive | inactive | Active | Active | Active | – | CCN(c1cc(-c2ccc(C(=O)NCCCCNc3cccc4c3C(=O)N(C3CCC(=O)NC3=O)C4=O)cc2)cc(C(=O)NCc2c(C)cc(C)[nH]c2=O)c1C)C1CCOCC1 (stereo not given)

Source: ChEMBL document CHEMBL5042478, “Design, Synthesis, and Evaluation of VHL-Based EZH2 Degraders to Enhance Therapeutic Activity against Lymphoma” (J Med Chem, 2021)
